Here are results for one molecule from US20070027130A1, “Tricyclic 6-alkylidene-penem beta-lactamase inhibitors and beta-lactam antibiotic combination: a broad spectrum antibiotic” (priority 2005, published 2007).

One assay has as its system E. cloacae GC 1475 (P99). Put plainly: MIC microbroth dilution. In kind it is cell-based. To be noted: Enterobacter cloacae, β-lactamase class C, MHBII, 35° C. 18 hr, read-out: Minimal Inhibitory Concentration. Here is the method:
(§1) The in vitro activities of the antibiotics were determined by the microbroth dilution method as recommended by the National Committee for Clinical Laboratory Standards (NCCLS). (NCCLS. 2000. Methods for Dilution Antimicrobial Susceptibility Tests for Bacteria That Grow Aerobically; Approved Standards: M7-A5, vol. 19. National Committee for Clinical Laboratory Standards, Villanova, Pa.). Mueller-Hinton II broth (MHBII) (BBL Cockeysville, Md.), was used for the testing procedure. […]. The plates were incubated for 18-22 hours at 35 C. in ambient air.
For orientation: Broth dilution looks for growth in wells or tubes with falling amounts of substance.

A further assay has as its system E. coli GC 1480 OXA-1. Put plainly: MIC microbroth dilution. In kind it is cell-based. To be noted: Escherichia coli, GC1480OXA1, β-lactamase class D, MHBII, 35° C. 18 hr, read-out: Minimal Inhibitory Concentration. Here is the method:
as §1

Another assay relates to E. coli GC 1995 (TEM-10). Put plainly: MIC microbroth dilution. The format is cell-based. To be noted: Escherichia coli, β-lactamase class A (ESBL), MHBII, 35° C. 18 hr, read-out: Minimal Inhibitory Concentration. Here is the method:
as §1

Another assay relates to E. coli GC 2009 (TEM-10). Put plainly: MIC microbroth dilution. The format is cell-based. To be noted: Escherichia coli, 18 h, read-out: Minimal Inhibitory Concentration. On the procedure:
as §1

Assay [1] deals with E. coli GC 2017 (TEM-10 + pl 6.3; 8.1). Put plainly: MIC microbroth dilution. In kind it is cell-based. To be noted: Escherichia coli, β-lactamase class A (ESBL), MHBII, 35° C. 18 hr, read-out: Minimal Inhibitory Concentration. On the procedure: as §1
Assay [2] has as its system E. coli GC 2149 (ACT-1; TEM-1 + pl 5.6). Put plainly: MIC microbroth dilution. The format is cell-based. To be noted: Escherichia coli, β-lactamase class A, A (ESBL), C, MHBII, 35° C. 18 hr, read-out: Minimal Inhibitory Concentration. Here is the method:
as §1

The subject of assay [3] is E. coli GC 2295 TEM-1 + AmpC. Put plainly: MIC microbroth dilution. The conditions noted are these: Escherichia coli, β-lactamase class A, C, MHBII, 35° C. 18 hr, read-out: Minimal Inhibitory Concentration. The format is cell-based. Here is the method:
as §1

The next assay deals with E. coli GC 2804 (imp). Put plainly: MIC microbroth dilution. In kind it is cell-based. The conditions noted are these: Escherichia coli, 18 h, read-out: Minimal Inhibitory Concentration. On the procedure:
as §1

A further assay deals with K. pn GC 1830 (SHV-2). Put plainly: MIC microbroth dilution. The conditions noted are these: Klebsiella pneumoniae, β-lactamase class A (ESBL), MHBII, 35° C. 18 hr, read-out: Minimal Inhibitory Concentration. In kind it is cell-based. Here is the method: as §1
Assay [4] deals with K. pn GC 1963 (TEM-10 + SHV-1 + SHV-ESBL). Put plainly: MIC microbroth dilution. In kind it is cell-based. The conditions noted are these: Klebsiella pneumoniae, β-lactamase class A, MHBII, 35° C. 18 hr, read-out: Minimal Inhibitory Concentration. On the procedure: as §1
Assay [5] relates to K. pn GC 3104 (MIR-1 + TEM-1). Put plainly: MIC microbroth dilution. The format is cell-based. The conditions noted are these: Klebsiella pneumoniae, β-lactamase class A, C, MHBII, 35° C. 18 hr, read-out: Minimal Inhibitory Concentration. On the procedure:
as §1

The subject of assay [6] is K. pn GC 6494 (TEM-1 + SHV-5). Put plainly: MIC microbroth dilution. In kind it is cell-based. The conditions noted are these: Klebsiella pneumoniae, β-lactamase class A, A (ESBL), MHBII, 35° C. 18 hr, read-out: Minimal Inhibitory Concentration. On the procedure: as §1
For assay [7], the system named is K. pn GC 6655 (TEM-1 + ACT-1). Put plainly: MIC microbroth dilution. In kind it is cell-based. The conditions noted are these: Klebsiella pneumoniae, β-lactamase class A, C, MHBII, 35° C. 18 hr, read-out: Minimal Inhibitory Concentration. On the procedure: as §1
For assay [8], the system named is K. pneumoniae GC 7645 TEM-30 TEM-1 KPC-2 SHV-12. Put plainly: MIC microbroth dilution. The format is cell-based. The conditions noted are these: Klebsiella pneumoniae, 18 h, read-out: Minimal Inhibitory Concentration. On the procedure:
as §1

Assay [9] has as its system P. aeruginosa GC 3153 Inducible AmpC. Put plainly: MIC microbroth dilution. In kind it is cell-based. To be noted: Pseudomonas aeruginosa, β-lactamase class C, MHBII, 35° C. 18 hr, read-out: Minimal Inhibitory Concentration. Here is the method:
as §1

Assay [10] deals with E. coli GC 6265 TEM-1 (LSU-80-8). Put plainly: In vivo antibacterial protection, infected mice. The conditions noted are these: 168 h, read-out: ED50 mg/kg/SIV. Here is the method: Female mice strain CD-1, approximately 18-22 grams, were received from Charles River Laboratories and quarantined 7 days prior to use.
Clinical isolates that were adapted to cause infection in mice were used in the experiment, including infections with strains of E. coli and E. cloacae.
Mice were challenged by injecting 0.5 ml intraperitoneally of a predetermined bacterial inoculum suspended in 5% hog gastric mucin. The bacterial inoculum was equivalent to 10-100 LD50s of the specific infecting strain and was designed to result in death of the non-treated control animals within 7 days. Antibacterial doses (dose concentration prepared by two fold serial dilutions of the antibiotic or antibiotic/compound combination) were dissolved or suspended in 0.2% aqueous agar (subcutaneous administration) or phosphate buffered saline (intravenous administration) and administered intravenously or subcutaneously in the following manner:
a) Subcutaneously: Dose volume of 0.5 ml was administered ½ hr after infection. […]
A detailed explanation of the protocol for the determination of in vivo efficacy follows: • A) The effectiveness of the lacamase inhibitor compound/cefepime combination was evaluated against a cefepime control. […]
The protective effects of the antibacterial agent(s) were measured by the survival of the infected untreated as compared to the treated animals. […]

In brackets after ≈: the same amount, converted by molar mass.

On to `CO/N=C(\C(=O)N[C@@H]1C(=O)N2C(C(=O)[O-])=C(C[N+]3(C)CCCC3)CS[C@H]12)c1csc(N)n1` [Cefepime], for which the MIC is 1 µg/mL (≈ 2.08 µM) in the assay on E. cloacae GC 1475 (P99); 4 µg/mL (≈ 8.32 µM) in the assay on E. coli GC 1480 OXA-1; above 16 µg/mL in the assay on E. coli GC 1995 (TEM-10); above 16 µg/mL in the assay with E. coli GC 2009 (TEM-10); 16 µg/mL (≈ 33.3 µM) in assay [1]; 16 µg/mL (≈ 33.3 µM) in assay [2]. Besides, the MIC in [3] is 0.5 µg/mL (≈ 1.04 µM); with E. coli GC 2804 (imp) it was 0.03 µg/mL (≈ 0.0624 µM); in the assay on K. pn GC 1830 (SHV-2) it was 2 µg/mL (≈ 4.16 µM); in assay [4], above 16 µg/mL; in [5], 1 µg/mL (≈ 2.08 µM); in assay [6], 4 µg/mL (≈ 8.32 µM). Moreover, the results for the MIC in assay [7], in [8] and in assay [9] were 1 µg/mL (≈ 2.08 µM), above 16 µg/mL and 16 µg/mL (≈ 33.3 µM), respectively. Also, the ED50 in [10] was 0.039 mg/kg.
